This note sets out measurements from Sander's compilation of Henry's law constants (doi:10.1093/jxb/48.5.1095).

SMILES strings stand for the structures.

The data set can be described thus: Henry solubility constant Hcp at 298.15 K (mol/(m3 Pa)). The note with it: reference: Merk and Riederer (1997).
On to `CCCO` [1-propanol], for which the “Henry solubility constant Hcp” value amounted to 1.5.

As to `CCCCC(C)O` (stereo not given) [2-hexanol], the “Henry solubility constant Hcp” value was 0.48.

Consider `CC(C)CO` [2-methyl-1-propanol], for which the “Henry solubility constant Hcp” value was 0.78.

Take `CCCCCCO` [1-hexanol]: the “Henry solubility constant Hcp” value amounted to 0.58.

On to `CCCCCO` [1-pentanol], for which the “Henry solubility constant Hcp” value worked out at 0.77.

In the case of `CCO` [ethanol], the “Henry solubility constant Hcp” value is 1.9.

As for `CCC(C)(C)O` [2-methyl-2-butanol], the “Henry solubility constant Hcp” value was 0.7.

For the compound `CCC(C)O` (stereo not given) [2-butanol], the “Henry solubility constant Hcp” value stood at 0.83.

As to `CCCC(C)O` (stereo not given) [2-pentanol], the “Henry solubility constant Hcp” value was 0.66.

For the compound `CC(C)O` [2-propanol], the “Henry solubility constant Hcp” value was found to be 1.2.
